Data reported in patent publication US7368428B2, “Compositions and methods for restoring sensitivity of tumor cells to antitumor therapy and inducing apoptosis” (A&G Pharmaceutical, Inc., priority 2003, dated 2008).
Structures can show the parent of a compound that is named as a salt.

Tests used:
[1] = tested on: MCF-7 breast carcinoma cells; test: PARP cleavage Western blot (apoptosis) in MCF-7 cells; assay type: cell-based; conditions: FIG. 5; for 85 kDa PARP cleavage product: agent alone
Description: Tamoxifen-induced apoptosis is blocked in tumor cells overexpressing GP88. FIG. 5 is a western blot measuring the level of the PARP cleavage product (85 kDa band) in MCF-7 breast carcinoma cells treated with tamoxifen, tamoxifen+GP88, tamoxifen+estradiol, GP88, and a control. […] Tamoxifen-induced apoptosis was blocked by treatment with estradiol, a compound known to block tamoxifen-induced apoptosis, as shown by the decrease in the 85 kDa band in the lane labeled “Tamoxifen+estradiol.” Tamoxifen-induced apoptosis was blocked by treatment with GP88 to the same extent as treatment by estradiol.
(§1) The present invention also provides methods of inducing apoptosis comprising administering a GP88 antagonist to a tumor cell. Apoptosis can be induced in all tumor cell types including, but not limited to, neuroblastoma, glioblastoma, astrocytoma, sarcomas, and cancers of the prostate, blood, cerebrospinal fluid, liver, kidney, breast, head and neck, pharynx, thyroid, pancreas, stomach, colon, colorectal, uterus, cervix, bone, bone marrow, testes, brain, neural tissue, ovary, skin, and lung. Apoptosis can be detected in tumor cells by a variety of techniques including, but not limited to for example, detection of Bcl-2 levels or detection of the PARP cleavage product, DNA ladder, and production of apoptotic cells. PARP or poly(ADP-ribose) polymerase is a nuclear binding protein that detects DNA strand breaks and participates in DNA repair. Cleavage of PARP is a hallmark of caspases-dependent apoptosis. When apoptosis takes place, the 116 kDa intact PARP is cleaved in two fragments, 85 kDa and 25 kDa. Detection of intact and cleaved forms of PARP by Western Blot analysis with anti-PARP antibody has been established as an apoptosis assay. Duriez et al., Biochem Cell Biol. 75: 337-49, 1997. […]
(§2) MCF-7 cells or O4 cells were seeded at a density of 7×10^5 cells in 60-mm dish in DMEM/F12 supplemented with 5% FBS. […] Intact and cleaved forms of PARP were detected using a mouse monoclonal anti-PARP antibody from Oncogene Research (San Diego, Calif.). α-Actin was used for normalizing the loading.

[2] = tested on: tamoxifen resistant MCF-7 cells; test: PARP cleavage Western blot (apoptosis) in tamoxifen resistant MCF-7 cells; assay type: cell-based; conditions: agent alone, FIG. 8
Description: as §1, with “kDa.” for “kDa. Detection of intact and cleaved forms of PARP by Western Blot analysis with anti-PARP antibody has been established as an apoptosis assay. Duriez et al., Biochem Cell Biol. 75: 337-49, 1997.”
as §2

Bcl-2 [3] = test: Bcl-2 mRNA transcript RT-PCR in MCF-7 cells; assay type: cell-based; conditions: all concentrations tested (0 to 2 μm tamoxifen), FIG. 6
Description: (§3) Apoptosis is controlled by the ratio of apoptotic to anti-apoptotic factors, particularly Bcl-2, bcl-xl and bax. […] Zhang et al., Clin. Cancer Res. 5: 2971-7, 1999; Cameron et al., Eur. J. Cancer 36: 845-51, 2000. Alteration of Bcl-2 expression levels changes the bax:Bcl-2 ratio and alters susceptibility to apoptosis. O4 cells are MCF-7 cells transformed with a GP88 expression construct to overexpress GP88. Serrero et al., Proc. Natl. Acad. Sci. U.S.A. 97: 3993-8, 2000.
(§4) GP88 overexpression blocks down-regulation of Bcl-2 mRNA transcript in response to tamoxifen treatment. MCF-7 cells and MCF-7 cells overexpressing GP88 (O4 cells) were treated with 0 to 2 μm tamoxifen. FIG. 6. 5 μg of total RNA was reverse transcribed into single strand cDNA by Super Script II (BRL, Gaithersburg, Md.) using 20 ng random hexamer (Gibco) as primer. The reverse transcription reaction was carried out for 1 h at 42 C in […] Tris-HCl (pH8.3), 2.5 mM MgCl2, 50 mM KCl, DTT 0.01 M and dNTP (each 0.5 mM). A total of 30-35 PCR cycles depending on the gene amplified were performed, followed by electrophoresis on 1% agarose gel. The specific primer pairs used were as follows: for glyceraldehyde 3-phosphate dehydrogenase (GAPDH): forward primer 5′ […] 3′ (SEQ ID NO: 9), reverse primer, 5′ […] 3′ (SEQ ID NO: 10); for Bcl-2: forward primer 5′ […] 3′ (SEQ ID NO: 11), reverse primer 5′ […] […]

Bcl-2 [4] = test: Bcl-2 mRNA transcript RT-PCR in O4 cells; assay type: cell-based; conditions: even at elevated doses, FIG. 6
Description: as §3, §4

[5] = tested on: O4 cells (GP88 overexpressing cells); test: tumor growth of O4 cells in ovariectomized nude mice; assay type: in vivo
Description: Athymic ovariectomized female nude mice were implanted with an estradiol pellet one day before being injected (S.C) with either MCF-7 cells or O4 cells. After 10 days when the tumors were visible, the mice received either a placebo pellet or tamoxifen pellet. Tumor growth was monitored for 45 days. At the end of the experiments, mice were euthanized and the tumors were excised and evaluated. […] In contrast, tumor volume in mice with tumor induced by O4 cells and untreated with tamoxifen increased from 75 mm^3 to 150 mm^3 in 45 days. Tamoxifen treatment of tumors overexpressing GP88 increased tumor volume more than 4 times while tumor volume of untreated GP88 overexpressing tumors increased by 2 times.

cyclin D1 = cyclin D1 expression (FIG. 11 lanes); assay type: cell-based
Description: Tumors progress through various stages of growth and maturation leading to increased mobility of the tumor through the body. Therefore, tumor cells can be targeted at several stages during the progression of tumor growth and maturation. For example, GP88 antagonists inhibit tumor cell growth and proliferation. For example, GP88 induces expression of cyclin D1, a cell cycle regulatory protein involved in the growth and proliferation of tumor cells.

Molecule | 85 kDa PARP cleavage product [1] | cleavage of PARP [2] | Bcl-2 transcript (Bcl-2 [3]) | Bcl-2 transcript (Bcl-2 [4]) | increase of tumor volume ([5]; O4 cell tumors (overexpressing GP88), tamoxifen treatment, 45 days) | tumor volume after 45 days ([5]; O4 cell tumors, ovariectomized nude mice with estradiol pellet, tamoxifen pellet, after 45 days, FIG. 9) | tumor volume at start ([5]; O4 cell tumors, ovariectomized nude mice with estradiol pellet, tamoxifen pellet, start value, FIG. 9) [mm^3] | tamoxifen-induced apoptosis (85 kDa PARP cleavage product) ([1]; agent added together with tamoxifen) | expression of cyclin D1 (cyclin D1)
CC/C(=C(\c1ccccc1)c1ccc(OCCN(C)C)cc1)c1ccccc1 [tamoxifen, tamoxifen citrate] | significantly increased | does not cleave PARP | induced down-regulation | failed to down regulate | more than 4 times | about 225 mm^3 | 50 |  | 
GP88: 88 kDa glycoprotein growth factor, epithelin/granulin precursor | not in the presence of GP88 |  |  |  |  |  |  | blocked | stimulates
